Reference: US20250163047A1, “HETEROCYCLIC COMPOUNDS, COMPOSITIONS THEREOF, AND METHODS OF TREATMENT THEREWITH” (BeiGene, Ltd., priority 2022, published 2025)
pIC50: −log10 of the molar value.

Assays:
Cbl (aa49-434) [1] = molecular target: T1, Cbl (aa49-434) (Homo sapiens, UniProt P22681); assay: Biotin-labelled Cbl biochemical assay (CBL/E2-Ub binding, HTRF); details: 5.0 nM biotin labelled Cbl
T1 construct: Cbl (aa49-434, in-house); made in house
T1 sequence (P22681 49-434): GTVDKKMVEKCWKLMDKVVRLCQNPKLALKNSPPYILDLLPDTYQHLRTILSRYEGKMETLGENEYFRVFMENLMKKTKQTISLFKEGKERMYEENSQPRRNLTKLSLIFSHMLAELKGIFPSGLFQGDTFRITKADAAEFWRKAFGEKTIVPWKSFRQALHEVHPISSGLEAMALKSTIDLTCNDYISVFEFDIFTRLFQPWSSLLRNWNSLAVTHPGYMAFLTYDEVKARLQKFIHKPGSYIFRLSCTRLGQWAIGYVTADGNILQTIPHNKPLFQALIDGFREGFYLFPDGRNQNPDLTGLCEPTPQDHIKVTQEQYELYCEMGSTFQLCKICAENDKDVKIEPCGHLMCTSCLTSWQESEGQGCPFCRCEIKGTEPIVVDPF
Procedure: (§1) The assay in the absence of a Cbl-b/Cbl inhibitor, where phosphorylation of Cbl-b/Cbl by the Src kinase allows UbcH5B-Ub to bind to Cbl-b/Cbl and brings the Bodipy-Fluorescein tagged ubiquitin in proximity to the streptavidin-terbium bound to the N-terminal biotinylated Avi-tagged Cbl-b/Cbl. […] The lack of a FRET signal indicates Cbl-b/Cbl is inhibited by the Cbl-b/Cbl inhibitor.
(§2) 5.0 nM recombinant biotin labelled Cbl was pre-incubated with a serial dilution of compounds (maximum concentration is 100 µM, 3-fold serially diluted, 16 points) at room temperature for 1.5 hour in an assay buffer containing 50 mM HEPES, pH 7.0, 100 mM NaCl, 0.01% BSA, 1 mM DTT, 0.01% Triton X-100. Then 10 nM in-house UbcH5B-Ub conjugate protein, 60 nM SRC (aa251-536, in-house), 0.5 mM ATP, 5 mM MgCl2 and Streptavidin-Tb cryptate (Cat: 610SATLB, Cisbio Bioassays) were added to plate and further incubated at room temperature for 2 hours.

Cbl-b (aa36-427) [2] = molecular target: T2, Cbl-b (aa36-427) (Homo sapiens, UniProt Q13191); assay: Biotin-labelled Cbl-b biochemical assay (CBLB/E2-Ub binding, HTRF); details: 5.0 nM biotin labelled Cbl-b
T2 construct: Cbl-b (aa36-427, in-house); made in house
Procedure: as §1
as §2, with “labelled Cbl-b” for “labelled Cbl”, “100 μM,” for “100 µM,”, “Then 25” for “Then 10”

Cbl (aa49-434) [3] = molecular target: T1, Cbl (aa49-434); assay: Co-expressed Cbl with BirA biochemical assay (CBL/E2-Ub binding, HTRF); details: 0.6 nM Cbl co-expressed with BirA, read-out: co-express CBL/E2-Ub-binding assay IC50
From the text: as §1

Cbl-b (aa36-427) [4] = molecular target: T2, Cbl-b (aa36-427); assay: Co-expressed Cbl-b with BirA biochemical assay (CBLB/E2-Ub binding, HTRF); details: 0.6 nM Cbl-b co-expressed with BirA, HTRF; read-out: co-express CBLB/E2-Ub-binding assay IC50
From the text: as §1

T2 sequence (Q13191 36-427): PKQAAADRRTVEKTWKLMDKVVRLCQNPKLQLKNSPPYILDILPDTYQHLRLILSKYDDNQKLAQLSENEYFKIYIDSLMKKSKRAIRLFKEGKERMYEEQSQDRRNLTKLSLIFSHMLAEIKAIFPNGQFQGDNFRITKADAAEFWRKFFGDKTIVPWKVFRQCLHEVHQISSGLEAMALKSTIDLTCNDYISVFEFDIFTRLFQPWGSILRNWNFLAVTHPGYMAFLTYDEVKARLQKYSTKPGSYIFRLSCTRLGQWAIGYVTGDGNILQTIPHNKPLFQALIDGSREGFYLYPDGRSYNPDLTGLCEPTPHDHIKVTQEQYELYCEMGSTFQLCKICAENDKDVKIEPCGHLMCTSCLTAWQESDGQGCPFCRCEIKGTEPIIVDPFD

Row | SMILES | pIC50 (Cbl (aa49-434) [1]) | pIC50 (Cbl-b (aa36-427) [2]) | pIC50 (Cbl (aa49-434) [3]) | pIC50 (Cbl-b (aa36-427) [4])
1 | C[C@H]1CCCN(Cc2cc(C(=O)Nc3cccc([C@]4(c5nncn5C)C[C@@H](C)C4)c3)nc3c2CCC3(F)F)C1 [Compound C5, 7,7-difluoro-N-(3-((1s,3R)-3-methyl-1-(4-methyl-4H-1,2,4-triazol-3-yl)cyclobutyl)phenyl)-4-(((S)-3-methylpiperidin-1-yl)methyl)-6,7-dihydro-5H-cyclopenta[b]pyridine-2-carboxamide] | 7.54 | 8.08 |  | 
2 | C[C@H]1CCCN(Cc2cc(C(=O)Nc3cccc([C@]4(c5nncn5C)C[C@@H](CC#N)C4)c3)nc3c2CCC3(F)F)C1 [Compound C6, N-(3-((1s,3R)-3-(cyanomethyl)-1-(4-methyl-4H-1,2,4-triazol-3-yl)cyclobutyl)phenyl)-7,7-difluoro-4-(((S)-3-methylpiperidin-1-yl)methyl)-6,7-dihydro-5H-cyclopenta[b]pyridine-2-carboxamide] | 7.32 | 8.47 |  | 
3 | CC(C)CNCc1cc(C(=O)Nc2cncc([C@]3(c4nncn4C)C[C@@H](C)C3)c2)c2nccn2c1 [Compound A78, 6-((isobutylamino)methyl)-N-(5-((1s, 3s)-3-methyl-1-(4-methyl-4H-1,2,4-triazol-3-yl)cyclobutyl)pyridin-3-yl)imidazo[1,2-a]pyridine-8-carboxamide] |  |  | 8.64 | 8.92
4 | Cn1cnnc1[C@]1(c2cccc(NC(=O)c3cc(CNC4(C)CCC4)cn4c(F)cnc34)c2)C[C@H](CC#N)C1 [Compound A61, N-(3-((1s, 3s)-3-(cyanomethyl)-1-(4-methyl-4H-1,2,4-triazol-3-yl)cyclobutyl)phenyl)-3-fluoro-6-(((1-methylcyclobutyl)amino)methyl)imidazo[1,2-a]pyridine-8-carboxamide] |  |  | 7.95 | 8.92
5 | C[C@H]1CCCN(Cc2cc(C(=O)Nc3cccc([C@]4(c5nncn5C)C[C@@H](CC#N)C4)c3)nc3c2CCC3(C)C)C1 [Compound C9, N-(3-((1s,3R)-3-(cyanomethyl)-1-(4-methyl-4H-1,2,4-triazol-3-yl)cyclobutyl)phenyl)-7,7-dimethyl-4-(((S)-3-methylpiperidin-1-yl)methyl)-6,7-dihydro-5H-cyclopenta[b]pyridine-2-carboxamide] |  |  | 7.80 | 9.05
6 | CC(C)CNCc1cc(C(=O)Nc2cccc([C@]3(c4nncn4C)C[C@@H](CC#N)C3)c2)nc2c1NCC2(C)C [Compound C32, 3,3-dimethyl-7-{[(2-methylpropyl)amino]methyl}-N-{3-[(1s, 3s)-3-(cyanomethyl)-1-(4-methyl-1,2,4-triazol-3-yl)cyclobutyl]phenyl}-1H,2H-pyrrolo[3,2-b]pyridine-5-carboxamide] |  |  | 8.11 | 8.73
7 | Cn1cnnc1[C@]1(c2cccc(NC(=O)c3cc(CNCC4CCC4)c4ccsc4n3)c2)C[C@H](C)C1 [Compound B41, 4-{[(cyclobutylmethyl)amino]methyl}-N-{3-[(1r, 3s)-3-methyl-1-(4-methyl-1,2,4-triazol-3-yl)cyclobutyl]phenyl}thieno[2,3-b]pyridine-6-carboxamide] |  |  | 8.64 | 9.10
8 | C[C@H](NCc1cc(C(=O)Nc2cccc([C@]3(c4nncn4C)C[C@@H](C)C3)c2)nc2cc[nH]c12)C1CC1 [Compound B3, 7-((((S)-1-cyclopropylethyl)amino)methyl)-N-(3-((1s,3R)-3-methyl-1-(4-methyl-4H-1,2,4-triazol-3-yl)cyclobutyl)phenyl)-1H-pyrrolo[3,2-b]pyridine-5-carboxamide] |  |  | 8.74 | 9.15
9 | C[C@H]1CCCN(Cc2cc(C(=O)Nc3cccc([C@]4(c5nncn5C)C[C@@H](CC#N)C4)c3)nc3c(Cl)c[nH]c23)C1 [Compound B16, 3-chloro-N-(3-((1s,3R)-3-(cyanomethyl)-1-(4-methyl-4H-1,2,4-triazol-3-yl)cyclobutyl)phenyl)-7-(((S)-3-methylpiperidin-1-yl)methyl)-1H-pyrrolo[3,2-b]pyridine-5-carboxamide] |  |  | 7.79 | 8.77
10 | Cc1c[nH]c2c(CNCC(C)C)cc(C(=O)Nc3cncc([C@]4(c5nncn5C)C[C@@H](C)C4)c3)nc12 [Compound B21, 7-((isobutylamino)methyl)-3-methyl-N-(5-((1s, 3s)-3-methyl-1-(4-methyl-4H-1,2,4-triazol-3-yl)cyclobutyl)pyridin-3-yl)-1H-pyrrolo[3,2-b]pyridine-5-carboxamide] |  |  | 8.12 | 8.66
11 | Cn1cnnc1[C@]1(c2cccc(NC(=O)c3cc(CNC4(C)CC4)cc4c(Cl)cnn34)c2)C[C@H](C)C1 [Compound A96, 3-chloro-N-(3-((1s, 3s)-3-methyl-1-(4-methyl-4H-1,2,4-triazol-3-yl)cyclobutyl)phenyl)-5-(((1-methylcyclopropyl)amino)methyl)pyrazolo[1,5-a]pyridine-7-carboxamide] |  |  | 8.49 | 9.30
12 | C[C@H]1CCCN(Cc2cc(C(=O)Nc3cccc([C@]4(Cc5nncn5C)C[C@@H](C#N)C4)c3)nc3cc[nH]c23)C1 [Compound B7, N-(3-((1r,3S)-3-cyano-1-((4-methyl-4H-1,2,4-triazol-3-yl)methyl)cyclobutyl)phenyl)-7-(((S)-3-methylpiperidin-1-yl)methyl)-1H-pyrrolo[3,2-b]pyridine-5-carboxamide] |  |  | 8.19 | 8.72
13 | Cn1cnnc1[C@]1(c2cccc(NC(=O)c3cc(CN[C@H]4CCC(F)(F)C4)cn4ccnc34)c2)C[C@H](CC#N)C1 [Compound A23, N-(3-((1s,3R)-3-(cyanomethyl)-1-(4-methyl-4H-1,2,4-triazol-3-yl)cyclobutyl)phenyl)-6-((((S)-3,3-difluorocyclopentyl)amino)methyl)imidazo[1,2-a]pyridine-8-carboxamide] |  |  | 7.94 | 8.85
14 | Cn1cnnc1[C@]1(c2cccc(NC(=O)c3cc(CNC4(C)CC4)cn4c(F)cnc34)c2)C[C@H](CC#N)C1 [Compound A17, N-(3-((1s, 3s)-3-(cyanomethyl)-1-(4-methyl-4H-1,2,4-triazol-3-yl)cyclobutyl)phenyl)-3-fluoro-6-(((1-methylcyclopropyl)amino)methyl)imidazo[1,2-a]pyridine-8-carboxamide] |  |  | 7.68 | 9.10
15 | Cn1cnnc1[C@]1(c2cncc(NC(=O)c3cc(CNC4(C)CCC4)c4[nH]ccc4n3)c2)C[C@H](C)C1 [Compound B50, N-(5-((1s, 3s)-3-methyl-1-(4-methyl-4H-1,2,4-triazol-3-yl)cyclobutyl)pyridin-3-yl)-7-(((1-methylcyclobutyl)amino)methyl)-1H-pyrrolo[3,2-b]pyridine-5-carboxamide] |  |  | 8.03 | 8.82
16 | Cn1cnnc1C[C@]1(c2cccc(NC(=O)c3cc(CNCC4(C)CCCC4)cn4ccnc34)c2)C[C@H](C#N)C1 [Compound A24, N-(3-((1r, 3r)-3-cyano-1-((4-methyl-4H-1,2,4-triazol-3-yl)methyl)cyclobutyl)phenyl)-6-((((1-methylcyclopentyl)methyl)amino)methyl)imidazo[1,2-a]pyridine-8-carboxamide] |  |  | 8.07 | 8.54
17 | C[C@H]1CCCN(Cc2cc(C(=O)Nc3cccc([C@]4(Cc5nncn5C)C[C@@H](C#N)C4)c3)nc3c2OCC3(C)C)C1 [Compound C11, 3,3-dimethyl-7-{[(3S)-3-methylpiperidin-1-yl]methyl}-N-{3-[(1r, 3r)-3-cyano-1-[(4-methyl-1,2,4-triazol-3-yl)methyl]cyclobutyl]phenyl}-2H-furo[3,2-b]pyridine-5-carboxamide] |  |  | 8.82 | 9.10
18 | C[C@H](NCc1cc(C(=O)Nc2cccc([C@]3(c4nncn4C)C[C@@H](C)C3)c2)c2ncc(F)n2c1)C1CC1 [Compound A19, 6-((((S)-1-cyclopropylethyl)amino)methyl)-3-fluoro-N-(3-((1s,3R)-3-methyl-1-(4-methyl-4H-1,2,4-triazol-3-yl)cyclobutyl)phenyl)imidazo[1,2-a]pyridine-8-carboxamide] |  |  | 8.09 | 8.77
